The text below walks through data of paper PMC5820187 (Archives of toxicology, 2017).

Like-named read-outs stand apart in the source and are kept apart here.

Series [1] concerns embryonic zebrafish. Particulars: for Bioactivity across the developmental toxicity assays (morphology, EPR, LPR): exposure 6-120 hpf.
Series [2] has as its system zebrafish larvae. Briefly: Larval photomotor response. It is filed as in vivo. Particulars: 120 hpf larvae; for LPR effect: at least one phase (light or dark).
Series [3] has as its system CYP1A protein expression. Particulars: zebrafish, in vivo.
Series [4] relates to embryonic zebrafish. Put plainly: Embryonic photomotor response. It is filed as in vivo. As to conditions: 24 hpf embryos; for EPR effect: any phase.
Where [5] appears, read: static exposure 6-120 hpf, 0.1-50 μM, assessed at 24 and 120 hpf.
The mark [6] stands for this setting: hierarchical clustering of lowest effect levels, Fig 2.

In the case of `CCc1ccc2c(c1)C(=O)c1ccccc1C2=O` [2-ethylanthraquinone], in series [1] (zebrafish, in vivo), the “Mortality and morphological effects (developmental toxicity endpoints, LELs)” value (“Mortality and morphological effects” below) was “increased mortality”; the “Number of developmental endpoints affected” value is on record as 15. Moreover, the LPR effect result in series [2] was “every derivative except 2-nitroanthracene and 2-ethylanthraquinone affected LPR behavior”. Besides, the “Tissue Type expressing CYP1A” value in series [3] is “Yolk”.

Consider `Oc1cc2ccccc2cc1O` [2,3-dihydroxynaphthalene], for which, in series [4], the EPR effect entry was “significant effects on EPR”.

On to `c1ccc2cc3ccccc3cc2c1` [Anthracene], for which the “Mortality and morphological effects” value in series [1] (setting [5]) was “no observed morphology effects”.

As to `c1ccc2c(c1)cc1ccc3cc4ccccc4c4ccc2c1c34` [Dibenzo[a,i]pyrene], in series [1] (setting [5]), the “Mortality and morphological effects” value is listed as “no observed morphology effects”.

In the case of `c1ccc2[nH]ccc2c1` [Indole], the “Tissue Type expressing CYP1A” value in series [3] is “Yolk”.

In the case of `c1ccc2c(c1)-c1cccc3cccc-2c13` [Fluoranthene], in series [3], the “Tissue Type expressing CYP1A” value is recorded as “Vasculature, Yolk”.

Regarding `Oc1cccc2ccccc12` [1-hydroxynaphthalene], the “Mortality and morphological effects” value in series [1] (zebrafish, in vivo) is given as “effects on mortality or morphology”.

As for `Cc1cccc2c(C)cccc12` [1,5-dimethylnaphthalene], the “Tissue Type expressing CYP1A” value in series [3] is listed as “Liver”.

Consider `Cc1cccc2c1ccc1cc(C(C)C)ccc12` [Retene], for which the “Tissue Type expressing CYP1A” value in series [3] is reported as “Vasculature”.

Take `O=C1c2ccccc2C(=O)c2ccccc21` [Anthraquinone]: in series [1] (setting [5]), the “Mortality and morphological effects” value is “did not cause morphological effects”.

`c1ccc2c(c1)oc1ccccc12` [Dibenzofuran]: the “Tissue Type expressing CYP1A” value in series [3] is reported as “Vasculature”.

For the compound `O=C1C=Cc2ccccc2C1=O` [1,2-naphthoquinone], the “Mortality and morphological effects” value in series [1] (setting [5]) is “effects on mortality or morphology”.

Consider `c1cc2ccc3cccc4ccc(c1)c2c34` [Pyrene], for which, in series [2], the LPR effect result is recorded as “significant LPR effects”.

Consider `Oc1cccc2c(O)cccc12` [1,5-dihydroxynaphthalene], for which the “Mortality and morphological effects” value in series [1] (setting [5]) is recorded as “effects on mortality or morphology”.

As for `c1ccc2c(c1)ccc1ccccc12` [Phenanthrene], the EPR effect entry in series [4] was “did not induce mortality or morphology changes, EPR effects”. For the same compound, the “LPR effect in the light phase” value in series [2] is recorded as “hyperactivity”.

Take `Cc1ccc2ccc3ccc(C)cc3c2c1` [3,6-dimethylphenanthrene]: the EPR effect entry in series [4] is listed as “hypoactivity”. Further, the “LPR effect in the light phase” value in series [2] was “effects on LPR in the light”.

For `c1ccc2c(c1)cc1ccc3cccc4c5ccccc5c2c1c34` [Dibenzo[a,l]pyrene], in series [1] (setting [6]), the “Developmental toxicity profile group” value was “Groups 1 and 2”.

`Cc1ccc2cc(C)ccc2c1` [2,6-dimethylnaphthalene]: the LPR effect entry in series [2] is “All derivatives except 2,6-dimethylnaphthalene had LPR effects in at least one phase”.

With `c1ccc2cc3c4ccccc4c4ccccc4c3cc2c1` [Dibenz[a,c]anthracene], in series [1] (setting [6]), the “Developmental toxicity profile group” value was “Groups 1 and 2”.

Take `c1ccc2ncccc2c1` [Quinoline]: the EPR effect entry in series [4] is listed as “only had an observed effect on EPR”. Also, in series [1] (zebrafish, in vivo), the “Developmental toxicity profile group” value was “Group 5”.

For `c1ccc2c(c1)cc1ccc3c4ccccc4cc4ccc2c1c43` [Dibenzo[a,h]pyrene], the “EPR effect in the Refractory period” value in series [4] was “hypoactive response”.

`O=C1C=CC(=O)c2cc3ccccc3cc21` [1,4-anthraquinone]: the “Bioactivity across the developmental toxicity assays (morphology, EPR, LPR)” value in series [1] (0.1-50 μM) is “most toxic derivative tested”. In series [1] (static exposure 6-120 hpf), the “Concentrations with increased mortality” value is recorded as “below 10 μM”.

With `c1ccc2ccccc2c1` [Naphthalene], in series [2], the “LPR effect in the dark phase” value was “hyperactivity” and the “LPR effect in the light phase” value is on record as “hyperactivity”.

Take `O=[N+]([O-])c1cc2ccc3cccc4ccc(c1)c2c34` [2-nitropyrene]: the “Bioactivity across the developmental toxicity assays (morphology, EPR, LPR)” value in series [1] (0.1-50 μM) is “only the cumulative ‘any’ endpoints”.

Regarding `O=[N+]([O-])c1ccc2cc3ccccc3cc2c1` [2-nitroanthracene], the LPR effect result in series [2] is “every derivative except 2-nitroanthracene and 2-ethylanthraquinone affected LPR behavior”.

Consider `Oc1ccc2ccccc2c1` [2-hydroxynaphthalene], for which the “Mortality and morphological effects” value in series [1] (zebrafish, in vivo) is recorded as “effects on mortality or morphology”.
